In PubChem BioAssay AID330 (DTP/NCI, 2004):
Where “and” joins values, the source holds several entries; their conditions need not be identical. Identical values can stand only once. Toxic doses and inconclusive results are not listed.

Test system: P388 leukemia ip, CD2F1 mice, survival T/C
Test: NCI In Vivo Anticancer Drug Screen. Data for tumor model P388 Leukemia (intraperitoneal) in CD2F1 (CDF1) mice
Conditions: endpoint: median survival time, higher = longer survival
In short: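 Mice carrying the transplanted tumor received test compound or vehicle. Survival was recorded in each group, and the value is the treated-group measurement divided by that of the vehicle-treated control group.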

[1] = dose: 100.0 mg/kg/injection, schedule: Q04DX002 (ip), vehicle: saline with Tween-80
[2] = dose: 200.0 mg/kg/injection, schedule: Q04DX002 (ip), vehicle: saline with Tween-80
[3] = dose: 100.0 mg/kg/injection, schedule: Q01DX009 (ip), vehicle: saline with Tween-80
[4] = dose: 100.0 mg/kg/injection, schedule: Q04DX003 (ip), vehicle: saline with Tween-80

CC1(C)CC(O)(CC2CCC34C(=O)OC(C)(CCC3Br)C24)CCC1Br (stereo not given)
T/C (dose: 5.0 mg/kg/injection, schedule: Q01DX009 (ip), vehicle: Klucel (hydroxypropylcellulose) (HPC)): 93 % of control | T/C (dose: 10.0 mg/kg/injection, schedule: Q01DX009 (ip), vehicle: Klucel (hydroxypropylcellulose) (HPC)): 109 % of control | T/C (dose: 20.0 mg/kg/injection, schedule: Q01DX009 (ip), vehicle: Klucel (hydroxypropylcellulose) (HPC)): 100 % of control

OC1CC2CCC(C1)N2c1ccccc1 (stereo not given)
T/C (dose: 50.0 mg/kg/injection, schedule: Q01DX005 (ip), vehicle: saline): 115 % of control | T/C (dose: 100.0 mg/kg/injection, schedule: Q01DX005 (ip), vehicle: saline): 97 % of control

O=C1c2cc3cc4ccccc4cc3cc2C(=O)c2c(O)ccc(O)c21
T/C (dose: 50.0 mg/kg/injection, schedule: Q04DX002 (ip), vehicle: saline with Tween-80): 90 % of control | T/C [1]: 91 % of control | T/C [2]: 99 % of control

CC1CCCCC1C(C)(C#N)Nc1ccccc1 (stereo not given)
T/C [3]: 109 % of control | T/C (dose: 200.0 mg/kg/injection, schedule: Q01DX009 (ip), vehicle: saline with Tween-80): 113 % of control | T/C (dose: 400.0 mg/kg/injection, schedule: Q01DX009 (ip), vehicle: saline with Tween-80): 118 % of control

CCCCS(=O)(=O)CSC#N
T/C (dose: 3.12 mg/kg/injection, schedule: Q01DX005 (ip), vehicle: saline with Tween-80): 102 % of control | T/C (dose: 6.25 mg/kg/injection, schedule: Q01DX005 (ip), vehicle: saline with Tween-80): 105 % of control | T/C (dose: 12.5 mg/kg/injection, schedule: Q01DX005 (ip), vehicle: saline with Tween-80): 117 % of control

CC(NNC(=S)NCc1ccccc1)c1cc2ccccc2cn1 (stereo not given)
T/C (dose: 50.0 mg/kg/injection, schedule: Q01DX005 (ip), vehicle: saline with Tween-80): 106 % of control and 113 % of control | T/C (dose: 100.0 mg/kg/injection, schedule: Q01DX005 (ip), vehicle: saline with Tween-80): 119 % of control | T/C (dose: 200.0 mg/kg/injection, schedule: Q01DX005 (ip), vehicle: saline with Tween-80): 160 % of control

CSc1nccc(=O)n1-c1ccccc1Cl
T/C [4]: 109 % of control | T/C (dose: 200.0 mg/kg/injection, schedule: Q04DX003 (ip), vehicle: saline with Tween-80): 114 % of control

C/C(NN(C)C)=C(\C#N)C(=O)/C=C/c1cccs1
T/C (dose: 60.0 mg/kg/injection, schedule: Q01DX005 (ip), vehicle: saline with Tween-80): 105 % of control | T/C (dose: 120.0 mg/kg/injection, schedule: Q01DX005 (ip), vehicle: saline with Tween-80): 98 % of control | T/C (dose: 240.0 mg/kg/injection, schedule: Q01DX005 (ip), vehicle: saline with Tween-80): 96 % of control

CCOc1ccnc2c(C)c3c([nH]c4ccccc43)c(C)c12
T/C [1]: 98 % of control | T/C [2]: 94 % of control | T/C (dose: 400.0 mg/kg/injection, schedule: Q04DX002 (ip), vehicle: saline with Tween-80): 96 % of control

N#CC(c1ccccc1)(N1CCOCC1)N1CCOCC1
T/C (dose: 6.25 mg/kg/injection, schedule: Q04DX003 (ip), vehicle: saline): 101 % of control and 97 % of control | T/C (dose: 12.5 mg/kg/injection, schedule: Q04DX003 (ip), vehicle: saline): 100 % of control and 101 % of control | T/C (dose: 25.0 mg/kg/injection, schedule: Q04DX003 (ip), vehicle: saline): 100 % of control and 101 % of control (2×) | T/C [4]: 100 % of control

CC(=NC(C)C)Nc1ccc(Cl)cc1
T/C (dose: 25.0 mg/kg/injection, schedule: Q01DX009 (ip), vehicle: saline with Tween-80): 107 % of control | T/C (dose: 50.0 mg/kg/injection, schedule: Q01DX009 (ip), vehicle: saline with Tween-80): 105 % of control | T/C [3]: 92 % of control

CN(C)CCSc1sc(N)nc1-c1ccccc1
T/C (dose: 50.0 mg/kg/injection, schedule: Q01DX009 (ip), vehicle: saline): 100 % of control | T/C (dose: 100.0 mg/kg/injection, schedule: Q01DX009 (ip), vehicle: saline): 98 % of control | T/C (dose: 200.0 mg/kg/injection, schedule: Q01DX009 (ip), vehicle: saline): 114 % of control

O=C(NCCN1CCCCC1)c1ccc(Cl)cc1Cl
T/C (dose: 50.0 mg/kg/injection, schedule: Q01DX009 (ip), vehicle: Klucel (hydroxypropylcellulose) (HPC)): 101 % of control | T/C (dose: 100.0 mg/kg/injection, schedule: Q01DX009 (ip), vehicle: Klucel (hydroxypropylcellulose) (HPC)): 98 % of control

CCCCCCCCOC(=O)Nc1ccc(OCC)cc1
T/C (dose: 0.75 mg/kg/injection, schedule: Q01DX009 (ip), vehicle: saline with Tween-80): 92 % of control | T/C (dose: 1.5 mg/kg/injection, schedule: Q01DX009 (ip), vehicle: saline with Tween-80): 97 % of control | T/C (dose: 3.0 mg/kg/injection, schedule: Q01DX009 (ip), vehicle: saline with Tween-80): 104 % of control
